Results from ChEMBL document CHEMBL1201862, “PubChem BioAssay data set” (2004).
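Protocol summary: plate cells (96-well), add compound at 5 concentrations, incubate 48 h, interpolate endpoints linearly. GI50: concentration for 50% inhibition of growth.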 The source made the active and inactive calls. Rule as the data show it: active = GI50 up to about 1.1 µM and inactive = higher.

Experiments:
Experiment in all cases: DTP human tumour cell line panel, 48 h
[1] = tested on: NCI-H226
[2] = tested on: KM12
[3] = tested on: SN12C
[4] = tested on: OVCAR-3
[5] = tested on: HOP-18
[6] = tested on: EKVX
[7] = tested on: HOP-92
[8] = tested on: OVCAR-8
[9] = tested on: K562
[10] = tested on: NCI-H23
[11] = tested on: UACC-62
[12] = tested on: HCT-15
[13] = tested on: SF-295
[14] = tested on: 786-0
[15] = tested on: A498
[16] = tested on: SNB-78
[17] = tested on: DLD-1
[18] = tested on: COLO 205
[19] = tested on: RXF 393
[20] = tested on: OVCAR-4
[21] = tested on: U-251
[22] = tested on: MOLT-4
[23] = tested on: HL-60
[24] = tested on: UO-31
[25] = tested on: DMS-273
[26] = tested on: SNB-75
[27] = tested on: SNB-19
[28] = tested on: SK-MEL-28
[29] = tested on: OVCAR-5
[30] = tested on: A549
[31] = tested on: M14
[32] = tested on: KM-20L2
[33] = tested on: SK-MEL-2
[34] = tested on: SW-620
[35] = tested on: ACHN
[36] = tested on: HOP-62
[37] = tested on: HCT-116
[38] = tested on: IGROV-1
[39] = tested on: CCRF-CEM
[40] = tested on: DMS-114
[41] = tested on: SF-539
[42] = tested on: SF-268
[43] = tested on: RPMI-8226
[44] = tested on: SK-MEL-5
[45] = tested on: HCC 2998
[46] = tested on: TK-10
[47] = tested on: M19-MEL
[48] = tested on: NCI-H460
[49] = tested on: LOX IMVI
[50] = tested on: CAKI-1
[51] = tested on: NCI-H522
[52] = tested on: SK-OV-3
[53] = tested on: Malme-3M
[54] = tested on: LXFL 529
[55] = tested on: UACC-257
[56] = tested on: NCI/ADR-RES
[57] = tested on: MCF7
[58] = tested on: HT-29
[59] = tested on: XF498

Measured: GI50

O=c1/c(=C/c2ccc3c(c2)OCO3)sc2nnc(Cc3ccccc3)n12
inactive: [1] > 100 µM | [2] > 100 µM | [3] > 100 µM | [4] > 100 µM | [5] 88.1 µM | [6] > 100 µM | [7] > 100 µM | [8] > 100 µM | [9] > 100 µM | [10] > 100 µM | [11] > 100 µM | [13] > 100 µM | [14] > 100 µM | [15] > 100 µM | [16] > 100 µM | [17] > 100 µM | [18] > 100 µM | [19] > 100 µM | [20] > 100 µM | [21] > 100 µM | [22] > 100 µM | [23] > 100 µM | [24] > 100 µM | [25] > 100 µM | [26] 61.1 µM | [27] > 100 µM | [28] > 100 µM | [29] > 100 µM | [30] > 100 µM | [31] > 100 µM | [32] > 100 µM | [33] > 100 µM | [34] > 100 µM | [35] > 100 µM | [36] > 100 µM | [37] > 100 µM | [38] > 100 µM | [39] 81.5 µM | [40] > 100 µM | [41] > 100 µM | [42] > 100 µM | [43] 34.5 µM | [44] > 100 µM | [45] 81.8 µM | [46] > 100 µM | [47] > 100 µM | [48] > 100 µM | [49] > 100 µM | [50] > 100 µM | [51] 92.3 µM | [52] > 100 µM | [53] > 100 µM | [54] > 100 µM | [55] 13.1 µM
> 100 µM: [12]

O=[N+]([O-])c1ccc2[nH]c3c(-c4ccccc4)nccc3c2c1
inactive: [1] 9.75 µM | [56] 16 µM | [2] 34.8 µM | [3] 25.1 µM | [4] 14.3 µM | [5] 18 µM | [6] 21.1 µM | [7] 16.3 µM | [8] 22 µM | [9] 1.71 µM | [10] 32.1 µM | [11] 14.8 µM | [13] 18 µM | [15] 82.6 µM | [16] 31 µM | [17] 3.73 µM | [18] 34.2 µM | [57] 24.8 µM | [19] 25.4 µM | [20] 10.5 µM | [21] 19.5 µM | [22] 2.31 µM | [23] 6 µM | [24] 4.41 µM | [25] 11.9 µM | [26] 11.7 µM | [27] 15.3 µM | [28] 29.2 µM | [29] 67.8 µM | [30] 15.6 µM | [58] 10.7 µM | [32] 27.6 µM | [33] 35 µM | [34] 36 µM | [36] 14.7 µM | [37] 17.1 µM | [38] 7.03 µM | [39] 4.09 µM | [40] 18.9 µM | [41] 63 µM | [42] 25 µM | [44] 15.4 µM | [45] 19.5 µM | [47] 25.9 µM | [48] 14.4 µM | [49] 16.9 µM | [59] 29.4 µM | [51] 14.3 µM | [52] 12.9 µM | [53] 18.9 µM | [55] 30 µM
8.59 µM: [12]
active: [43] 0.796 µM
